# Data: patent US9549909B2, “Method for the treatment of dravet syndrome” (KATHOLIEKE UNIVERSITEIT LEUVEN, priority 2013, dated 2017)
# Key:
# [1] = system: seizures in Dravet Syndrome patients; assay: Long-term fenfluramine and valproate treatment of Dravet Syndrome patients (Ceulemans et al. data); type: in vivo, human
# Source text: The following table provides results based on the data presented in Ceulemans et al., Epilepsia (2012) 53(7):1131-1139.
# [2] = system: self-induced photosensitive seizures; conditions: cited from earlier work
# refractory epilepsy = conditions: children with refractory epilepsy; dose of 0.5 to 1 mg/kg/day; cited from earlier work
# heart valve = assay: Echocardiography monitoring for heart valve defects in subjects treated with fenfluramine; type: in vivo, human
# Source text: The subjects treated with fenfluramine were monitored using echocardiography for possible heart valve defects.
# [3] = system: seizures in Dravet Syndrome patients; conditions: Combined STICLO-France and Italy; stiripentol and either valproate or clobazam; two months; cited from earlier work
# [4] = fenfluramine and valproate, average daily dose 0.34 mg/kg/day for between 1 and 22 years, 0.34 mg/kg/day
SMILES,"Types of seizures reduced ([1]; Dravet Syndrome patients, not only photosensitive or self-induced seizures)",">50% Reduction in Seizures (responders) [1, 4]","Seizure-free Patients [1, 4]","Response of self-induced photosensitive seizures ([2]; four cases, Aicardi and Gastaut)","Effect on pattern sensitivity-induced seizures resistant to anticonvulsive treatment ([2]; one child, Clemens 1988)",Effect on number of seizures (refractory epilepsy),Heart valve defects by echocardiography (heart valve),Responders - >50% Reduction in the Number of Seizures [3],Seizure Free Patients [3]
"CCNC(C)Cc1cccc(C(F)(F)F)c1 (stereo not drawn) [Fenfluramine, 3-trifluoromethyl-N-ethylamphetamine]",effectively reduced the incidence of all types of seizures,75%,66.6%,responded to treatment,successfully terminated these self-induced seizures,reduction in the number of seizures,No clinically relevant defects were identified,,
CC(C)(C)C(O)/C=C/c1ccc2c(c1)OCO2 (stereo not drawn) [Stiripentol],,,,,,,,69.7%,38.7%
